Measurements from patent publication US20100240654A1, “HYDRAZIDE DERIVATIVES” (priority 2004, published 2010).
Structures can show the parent of a compound that is named as a salt.

Key:
[1] = biological target: T1, human clotting factor VIIa (Homo sapiens, UniProt P08709); experiment: Inhibitory activity against clotting factor VIIa (chromogenic substrate Spectrozyme FVIIa, with tissue factor); assay type: biochemical; details: 10 nmol/L TF, 5 nmol/L Factor VIIa, room temperature 40 minutes, 405 nm
T1 construct: a human clotting factor VIIa (Factor VIIa) purified sample; purchased Enzyme Research Laboratories (Factor VIIa); Calbiochem (tissue factor) HFVIIa (Factor VIIa); 612151 (tissue factor)
Procedure: Dimethylsulfoxide (DMSO) solutions were prepared with compounds of the invention at concentration of 10 mmol/L (10 mmol/L compound solutions).
One packet of tris-hydroxymethylaminomethane-preset (Tris Preset) (product of SIGMA Corp., Catalog No. T8293), 8.8 g of sodium chloride (NaCl) and 1 g of bovine serum albumin (BSA) were dissolved in 1 L of water to prepare a Tris-BSA buffer (100 mmol/L Tris, 0.15 mol/L NaCl, 0.1% BSA, pH 7.4).
The Tris-BSA buffer (180 μL) was added to the aforementioned 10 mmol/L compound solution (20 μL). A 10-fold dilution series was prepared for this mixture using the aforementioned Tris-BSA buffer, and solutions with the compound at concentrations of 1.0 mmol/L, 100, 10, 1, 0.1, 0.01 and 0.001 μmol/L were prepared (1.0 mmol-0.001 μmol/L compound solutions).
As a control, a solution was prepared by 10-fold dilution of DMSO with the Tris-BSA buffer (control 10% solution).
After dissolving one packet of Tris preset, NaCl (8.8 g) and BSA (1 g) in water (about 900 mL), there were added 1 mol/L aqueous calcium chloride (CaCl2) (15 mL) and 1 mg/mL aqueous cephalin (30 mL), and the total volume was brought to 1 L by adding water. To this solution was added a human tissue factor (TF) sample (product of Calbiochem, Catalog No. 612151) (450 μg) to a TF sample concentration of 10 nmol/L, and then a human clotting factor VIIa (Factor VIIa) purified sample (product of Enzyme Research Laboratories, Catalog No. HFVIIa) (250 μg) was added to a Factor VIIa purified sample concentration of 5 nmol/L, to prepare an enzyme solution (100 mmol/L Tris-HCl, 0.15 mol/L NaCl, 15 mmol/L CaCl2, 30 μg/mL cephalin, 1 mg/mL BSA, 10 nmol/L TF, 5 nmol/L Factor VIIa).
To 110 μL of this enzyme solution was added 15 μL of each of the 1.0 mmol-0.001 μmol/L compound solutions, and then 25 μL of a 1.0 mmol/L synthetic chromogenic substrate solution (Spectrozyme FVIIa) was added and the mixture was allowed to stand at room temperature for 40 minutes. Next, the amount of 4-nitroanilide released into the solution was quantitated by spectrophotometry (405 nm).
A control measurement was conducted in the same manner, using the control 10% solution instead of the compound solution.
This measurement yielded the enzyme reaction inhibition in the presence of 100 μmol/L to 0.1 nmol/L of each compound of the invention. The enzyme reaction inhibition at each compound concentration was subjected to non-linear regression analysis, and the IC50 value for inhibitory activity of each compound against clotting factor VIIa was calculated.

[2] = tested on: healthy human plasma; experiment: Blood clotting time prolongation (prothrombin time, steel ball method); details: human thromboplastin, 37° C.

T1 sequence (P08709 213-466 limits assumed): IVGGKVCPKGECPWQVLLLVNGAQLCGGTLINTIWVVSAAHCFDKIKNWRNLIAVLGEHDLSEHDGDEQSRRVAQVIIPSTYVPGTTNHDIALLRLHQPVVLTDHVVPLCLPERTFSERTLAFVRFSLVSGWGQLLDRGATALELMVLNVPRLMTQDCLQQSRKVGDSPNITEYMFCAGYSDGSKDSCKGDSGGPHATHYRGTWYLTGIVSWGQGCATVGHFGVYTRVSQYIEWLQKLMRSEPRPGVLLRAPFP
T1 sequence (P08709 61-212 limits assumed): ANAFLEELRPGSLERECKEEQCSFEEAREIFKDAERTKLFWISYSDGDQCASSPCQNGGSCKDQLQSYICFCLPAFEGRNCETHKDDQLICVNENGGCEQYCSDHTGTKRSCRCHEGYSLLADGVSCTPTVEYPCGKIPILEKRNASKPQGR
T1 sequence (P13726 33-295 partner): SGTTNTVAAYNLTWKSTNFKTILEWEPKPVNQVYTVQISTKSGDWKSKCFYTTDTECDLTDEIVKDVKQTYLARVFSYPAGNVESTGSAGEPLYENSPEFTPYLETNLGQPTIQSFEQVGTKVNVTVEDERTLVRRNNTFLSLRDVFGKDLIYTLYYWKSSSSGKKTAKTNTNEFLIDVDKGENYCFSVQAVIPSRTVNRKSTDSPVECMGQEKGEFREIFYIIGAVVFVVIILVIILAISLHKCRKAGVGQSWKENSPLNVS

Row | IC50 [1] [nM] | SMILES | h PT × 1.1: compound concentration which produced 10% prolongation compared to the control clotting time [2] [µM]
1 | 96 | CCOc1cc(C(Nc2ccc(C(=N)N)cc2)C(=O)NNc2ccccn2)ccc1OC(C)C.O=C(O)C(F)(F)F (stereo not shown) [Example 2, 4-(((3-Ethoxy-4-isopropoxyphenyl)-(N′-pyridin-2-ylhydrazinocarbonyl)methyl)amino)benzamidine trifluoroacetate] | 1.00
2 | 51 | CCOc1cc(C(Nc2ccc(C(=N)N)cc2)C(=O)NNc2ccccc2C(=O)O)ccc1OC(C)C.O=C(O)C(F)(F)F (stereo not shown) [Example 3, 2-(N′-(2-(4-Carbamimidoylphenylamino)-2-(3-ethoxy-4-isopropoxyphenyl)acetyl)hydrazino)benzoic acid trifluoroacetate] | 1.00
3 | 316 | CCOc1cc(C(Nc2ccc(C(=N)N)cc2)C(=O)NNS(=O)(=O)c2ccc(NC(C)=O)cc2)ccc1OC(C)C.O=C(O)C(F)(F)F (stereo not shown) [Example 9, N-(4-(2-(2-(4-Carbamimidoylphenylamino)-2-(3-ethoxy-4-isopropoxyphenyl)acetyl)hydrazinosulfonyl)phenyl)acetamide trifluoroacetate] | 1.30
4 | 233 | CCOc1cc(C(Nc2ccc(C(=N)N)cc2)C(=O)NNS(=O)(=O)c2ccccc2S(C)(=O)=O)ccc1OC(C)C.O=C(O)C(F)(F)F (stereo not shown) [Example 10, 4-(1-(3-Ethoxy-4-isopropoxyphenyl)-2-(2-(2-methanesulfonyl)phenylsulfonyl)hydrazino)-2-oxoethylamino)benzamidine trifluoroacetate] | 
5 |  | CCOc1cc(C(Nc2ccc(C(=N)N)cc2)C(=O)NNS(=O)(=O)c2ccccc2S(C)(=O)=O)ccc1OC(C)C.O=C(O)C(F)(F)F (stereo not shown) [Example 10] | 1.20
6 | 255 | COc1cc(F)c(C(Nc2ccc(C(=N)N)cc2)C(=O)NNC(=O)c2ccccc2Cl)cc1OC.O=C(O)C(F)(F)F (stereo not shown) [Example 23, 4-(2-(N′-(2-Chlorobenzoyl)hydrazino)-1-(2-fluoro-4,5-dimethoxyphenyl)-2-oxoethylamino)benzamidine trifluoroacetate] | 1.20
7 | 84 | CCOc1cc(C(Nc2ccc(C(=N)N)cc2)C(=O)NNC(=O)c2cnccc2Cl)ccc1OC(C)C.O=C(O)C(F)(F)F (stereo not shown) [Example 25, 4-(2-(N′-(4-Chloropyridine-3-carbonyl)hydrazino)-1-(3-ethoxy-4-isopropoxyphenyl)-2-oxoethylamino)benzamidine trifluoroacetate] | 1.20
8 | 69 | CCOc1cc(C(Nc2ccc(C(=N)N)cc2)C(=O)NNC(=O)c2cnccc2C)ccc1OC(C)C.O=C(O)C(F)(F)F (stereo not shown) [Example 27, 4-(1-(3-Ethoxy-4-isopropoxyphenyl)-2-(N′-(4-methylpyridine-3-carbonyl)hydrazino)-2-oxoethylamino)benzamidine trifluoroacetate] | 0.74
9 | 110 | CCOc1cc(C(Nc2ccc(C(=N)N)cc2)C(=O)NNC(=O)c2ccccc2[N+](=O)[O-])ccc1OC(C)C.O=C(O)C(F)(F)F (stereo not shown) [Example 32, 4-(1-(3-Ethoxy-4-isopropoxyphenyl)-2-(N′-(2-nitrobenzoyl)hydrazino)-2-oxoethylamino)benzamidine trifluoroacetate] | 0.80
10 | 57 | CCOc1cc(C(Nc2ccc(C(=N)N)cc2)C(=O)NNC(=O)c2ccncc2Cl)ccc1OC(C)C.O=C(O)C(F)(F)F (stereo not shown) [Example 33, 4-(2-(N′-(3-Chloropyridine-4-carbonyl)hydrazino)-1-(3-ethoxy-4-isopropoxyphenyl)-2-oxoethylamino)benzamidine trifluoroacetate] | 1.10
11 | 63 | CCOc1cc(C(Nc2ccc(C(=N)N)cc2)C(=O)NNC(=O)c2ccncc2Br)ccc1OC(C)C.O=C(O)C(F)(F)F (stereo not shown) [Example 34, 4-(2-(N′-(3-Bromopyridine-4-carbonyl)hydrazino)-1-(3-ethoxy-4-isopropoxyphenyl)-2-oxoethylamino)benzamidine trifluoroacetate] | 1.40
12 | 164 | CCOc1cc(C(Nc2ccc(C(=N)N)cc2)C(=O)NNC(=O)c2ccncc2F)ccc1OCCN(C)C.O=C(O)C(F)(F)F (stereo not shown) [Example 53, 4-(1-(4-(2-Dimethylaminoethoxy)-3-ethoxyphenyl)-2-oxo-2-(N′-(3-fluoropyridine-4-carbonyl)hydrazino)ethylamino)benzamidine trifluoroacetate] | 0.65
13 | 198 | CCOc1cc(C(Nc2ccc(C(=N)N)cc2)C(=O)NNc2ccccc2OC)ccc1OCCN(C)C.O=C(O)C(F)(F)F (stereo not shown) [Example 56, 4-(((4-(2-Dimethylaminoethoxy)-3-ethoxyphenyl)-(N′-(2-methoxyphenyl)hydrazinocarbonyl)methyl)amino)benzamidine trifluoroacetate] | 0.41
14 | 203 | CCOc1cc(C(Nc2ccc(C(=N)N)cc2)C(=O)NNC(=O)c2ccncc2F)ccc1OCC(=O)N(C)C.O=C(O)C(F)(F)F (stereo not shown) [Example 60, 2-(4-(1-(4-Carbamimidoylphenylamino)-2-(N′-(3-fluoropyridine-4-carbonyl)-hydrazino)-2-oxoethyl)-2-ethoxyphenoxy)-N,N-dimethyl-acetamide trifluoroacetate] | 0.30
15 | 184 | CCOc1cc(C(Nc2ccc(C(=N)N)cc2)C(=O)NNC(=O)c2ccncc2Cl)ccc1OCC(=O)N(C)C.O=C(O)C(F)(F)F (stereo not shown) [Example 61, 2-(4-(1-(4-Carbamimidoylphenylamino)-2-(N′-(3-chloropyridine-4-carbonyl)hydrazino)-2-oxoethyl)-2-ethoxyphenoxy)-N,N-dimethylacetamide trifluoroacetate] | 0.41
16 | 259 | COc1cc(F)c(C(Nc2ccc(C(=N)N)cc2)C(=O)NNC(=O)c2ccccc2Br)cc1OC.O=C(O)C(F)(F)F (stereo not shown) [Example 72, 4-(2-(N’-(2-Bromobenzoyl)hydrazino)-1-(2-fluoro-4,5-dimethoxyphenyl)-2-oxoethylamino)benzamidine trifluoroacetate] | 1.20
17 | 169 | CCOc1cc(C(Nc2ccc(C(=N)N)cc2)C(=O)NNC(=O)c2cnccc2C)ccc1OCCOC.O=C(O)C(F)(F)F (stereo not shown) [Example 76, 4-(1-(3-Ethoxy-4-(2-methoxyethoxy)phenyl)-2-(N′-(4-methylpyridine-3-carbonyl)hydrazino)-2-oxoethylamino)benzamidine trifluoroacetate] | 0.63
18 | 49 | CCOc1cc(C(Nc2ccc(C(=N)N)cc2)C(=O)NNC(=O)c2ccncc2Cl)ccc1OCCOC.O=C(O)C(F)(F)F (stereo not shown) [Example 78, 4-(2-(N′-(3-Chloropyridine-4-carbonyl)hydrazino)-1-(3-ethoxy-4-(2-methoxyethoxy)phenyl)-2-oxoethylamino)benzamidine trifluoroacetate] | 0.42
19 | 78 | CCCOc1cc(OC)cc(C(Nc2ccc(C(=N)N)cc2)C(=O)NNC(=O)c2ccncc2)c1F.O=C(O)C(F)(F)F (stereo not shown) [Example 81, 4-{1-(2-Fluoro-5-methoxy-3-propoxyphenyl)-2-oxo-2-[N′-(pyridine-4-carbonyl)hydrazino]ethylamino}benzamidine trifluoroacetate] | 1.20
20 | 336 | CCOc1cc(C(Nc2ccc(C(=N)N)cc2)C(=O)NNC(=O)c2ccccc2Cl)ccc1OCC(C)(C)N (stereo not shown) [Example X-247, 4-[1-[4-(2-Amino-2-methylpropoxy)-3-ethoxyphenyl]-2-[N′-(2-chlorobenzoyl)-hydrazino]-2-oxoethylamino]benzamidine trifluoroacetate] | 
